Results taken from patent publication US4416883A, “Penicillin derivatives” (Beecham Group Limited, priority 1980, dated 1983).

Assays:
Type in all cases: cell-based
[1] = system: S. faecalis I; assay: MIC against S. faecalis I; settings: Enterococcus faecalis, AGAR
Description: (§1) | MIC values (μg/ml) of the compounds of Example 4b against | a number of organisms important in human infections

[2] = system: Enterobacter cloacae N1; assay: MIC against Enterobacter cloacae N1; settings: AGAR
Description: as §1

[3] = system: B. subtilis; assay: MIC against B. subtilis; settings: Bacillus subtilis, AGAR
Description: as §1

[4] = system: E. coli JT425; assay: MIC against E. coli JT425; settings: Escherichia coli, AGAR
Description: as §1

[5] = system: Staph. aureus Russell; assay: MIC against Staph. aureus Russell; settings: Staphylococcus aureus, AGAR
Description: as §1

[6] = system: P. morganii; assay: MIC against P. morganii; settings: Morganella morganii, AGAR
Description: as §1

[7] = system: E. coli JT4; assay: MIC against E. coli JT4; settings: Escherichia coli, AGAR
Description: as §1

[8] = system: P. mirabilis C977; assay: MIC against P. mirabilis C977; settings: Proteus mirabilis, AGAR
Description: as §1

[9] = system: Ps aeruginosa Dalgleish; assay: MIC against Ps aeruginosa Dalgleish; settings: AGAR; Ps aeruginosa Dalgleish 10^-2
Description: as §1

[10] = system: P. mirabilis 889; assay: MIC against P. mirabilis 889; settings: Proteus mirabilis, AGAR
Description: as §1

[11] = system: E. coli NCTC 10418; assay: MIC against E. coli NCTC 10418; settings: Escherichia coli
Description: as §1

[12] = system: Serratia marcescens US32; assay: MIC against Serratia marcescens US32; settings: AGAR
Description: as §1

[13] = system: β-Haemolytic Strep. CN10; assay: MIC against β-Haemolytic Strep. CN10; settings: AGAR
Description: as §1

[14] = system: Staph. aureus Oxford; assay: MIC against Staph. aureus Oxford; settings: Staphylococcus aureus
Description: as §1

[15] = system: Klebsiella aerogenes A; assay: MIC against Klebsiella aerogenes A
Description: as §1

[16] = system: P. rettgeri; assay: MIC against P. rettgeri; settings: Providencia rettgeri, AGAR
Description: as §1

[17] = system: Ps aeruginosa 10662; assay: MIC against Ps aeruginosa 10662
Description: as §1

CCN1CCN(C(=O)N[C@@H](C(=O)N[C@@H]2C(=O)N3[C@@H](C(=O)O)CS[C@H]23)c2ccccc2)C(=O)C1=O [Example 4b, Sodium 6β[D,2(4-ethyl-2,3-dioxopiperazine-1-carbonylamino)]phenylacetamidobisnorpenicillanate]
MIC [1]: 50 µg/mL
MIC [2]: 0.5 µg/mL
MIC [3]: 5 µg/mL
MIC [4]: 10 µg/mL
MIC [5]: > 100 µg/mL
MIC [6]: 0.2 µg/mL
MIC [7]: > 100 µg/mL
MIC [8]: 0.1 µg/mL
MIC [9]: > 100 µg/mL
MIC [10]: > 100 µg/mL
MIC ([11]; NCTC10418, AGAR): 1 µg/mL
MIC ([11]; NCTC10418, BROTH): 0.5 µg/mL
MIC [12]: 0.5 µg/mL
MIC [13]: 0.2 µg/mL
MIC ([14]; AGAR): 1 µg/mL
MIC ([14]; BROTH): 0.5 µg/mL
MIC ([15]; AGAR): 0.2 µg/mL
MIC ([15]; BROTH): > 10 µg/mL
MIC [16]: 0.5 µg/mL
MIC ([17]; AGAR, Ps aeruginosa 10662): 10 µg/mL
MIC ([17]; AGAR, Ps aeruginosa 10662 10^-2): 5 µg/mL
MIC ([17]; BROTH, Ps aeruginosa 10662): 10 µg/mL
MIC ([17]; BROTH, Ps aeruginosa 10662 10^-2): 5 µg/mL
